The compounds below were run against SARS-CoV-2 3CL protease (Severe acute respiratory syndrome coronavirus 2, UniProt P0DTD1) (assay: Inhibitory activity test against SARS-CoV-2 3CL proteases). Settings: IC50 (50% SARS-CoV-2 3CL protease inhibitory concentration).
Assay type: biochemical

Row | SMILES | IC50
1 | O=c1[nH]cccc1Cn1c(=O)c2ccc(N3[C@@H]4CNC[C@H]3COC4)cc2n(Cc2cc(F)c(F)c(F)c2)c1=O [Compound I-0381] | < 0.1 µM
2 | COc1nc(N2CC[C@H](F)C2)cc2c1c(=O)n(Cc1ncn(C)n1)c(=O)n2Cc1cc(F)c(F)c(F)c1 [Compound I-0446] | < 0.1 µM
3 | COc1nc(N2[C@@H]3CC[C@H]2CNC3)cc2c1c(=O)n(-c1cncc(Cl)c1)c(=O)n2Cc1cc(F)c(F)c(F)c1 [Compound I-0541] | 0.0034 µM

Same assay, conditions: read-out: IC50 (50% SARS-CoV-2 3CL protease inhibitory concentration)

Row | SMILES | IC50
4 | Cn1cnc(Cn2c(=O)c3c(F)c(Cl)c(-c4cc5c(cc4Cl)NC(=O)C5)cc3n(Cc3cc(F)c(F)c(Cl)c3)c2=O)n1 [Compound I-0492] | < 0.1 µM
5 | Cc1cc2c(=O)n(Cc3ncn(C)n3)c(=O)n(Cc3cc(F)c(F)c(F)c3)c2cc1-c1cc2c(cc1Cl)NC(=O)C2 [Compound I-0248] | 0.0073 µM
6 | COc1cc(-c2cc(C(=O)NCCO)ccc2Cl)cc2c1c(=O)n(Cc1ncn(C)n1)c(=O)n2Cc1cc(F)c(F)c(F)c1 [Compound I-0214] | < 0.1 µM
7 | COc1cc(-c2cc3c(cc2Cl)NC(=O)C3)cc2c1c(=O)n(-c1cncc(C)c1)c(=O)n2Cc1ccc(F)c(C#N)c1 [Compound I-0060] | 0.0027 µM
8 | Cn1cnc(Cn2c(=O)c3c(Cl)cc(-c4cc5cn[nH]c5cc4Cl)cc3n(Cc3cc(F)c(F)c(Cl)c3)c2=O)n1 [Compound I-0173] | < 0.1 µM
9 | COc1cc(-c2cc(C#N)ccc2Cl)cc2c1c(=O)n(-c1cncc(C)c1)c(=O)n2Cc1cc(F)c(F)c(F)c1 [Compound I-0026] | 0.0065 µM
10 | NC(=O)c1ccc(Cl)c(-c2ccc3c(=O)n(Cc4ccc[nH]c4=O)c(=O)n(Cc4cc(F)c(F)c(F)c4)c3c2)c1 [Compound I-0296] | < 0.1 µM
11 | COc1cc(-c2cc(S(C)(=O)=O)ccc2Cl)cc2c1c(=O)n(Cc1ncn(C)n1)c(=O)n2Cc1cc(F)c(F)c(F)c1 [Compound I-0122] | 0.027 µM
12 | Cn1cnc(Cn2c(=O)c3c(F)cc(-c4cc(C#N)ccc4Cl)cc3n(Cc3cc(F)c(F)c(Cl)c3)c2=O)n1 [Compound I-0281] | < 0.1 µM
13 | CNC(=O)Cn1c(=O)c2c3c(c(-c4cc(C#N)ccc4Cl)cc2n(Cc2cc(F)c(F)c(F)c2)c1=O)CCO3 [Compound I-0443] | < 0.1 µM
14 | COc1cc(-c2cc(CC(=O)NC3CCN(C)CC3)ccc2Cl)cc2c1c(=O)n(-c1cncc(Cl)c1)c(=O)n2Cc1ccc(F)c(C#N)c1 [Compound I-0201] | < 0.1 µM
15 | Cc1cncc(-n2c(=O)c3c(Cl)cc(-c4cc(CO)ccc4Cl)cc3n(Cc3ccc(F)c(C#N)c3)c2=O)c1 [Compound I-0014] | 0.03 µM
16 | Cn1cnc(Cn2c(=O)c3c(F)cc(-c4cc5c(cc4Cl)NC(=O)C5)cc3n(Cc3cc(F)c(F)c(F)c3)c2=O)n1 [Compound I-0270] | < 0.1 µM
17 | COc1cc(-c2cc(CC(=O)N3CC[C@H](N)C3)ccc2Cl)cc2c1c(=O)n(-c1cncc(Cl)c1)c(=O)n2Cc1cc(F)c(F)c(F)c1 [Compound I-0211] | < 0.1 µM
18 | COc1nc(N2C[C@@H]3CC[C@H]2CN3)cc2c1c(=O)n(-c1cncc(Cl)c1)c(=O)n2Cc1cc(F)c(F)c(Cl)c1 [Compound I-0540] | < 0.1 µM
19 | CC(C)Nc1cc2c(c(=O)n(Cc3ncn(C)n3)c(=O)n2Cc2cc(F)c(F)c(F)c2)c2ncn(C)c12 [Compound I-0553] | 0.1 to 1 µM
20 | N#Cc1ccc(Cl)c(-c2cc3c(c4c2CCO4)c(=O)n(Cc2cc(F)c[nH]c2=O)c(=O)n3Cc2cc(F)c(F)c(F)c2)c1 [Compound I-0504] | < 0.1 µM
21 | Cn1cnc(Cn2c(=O)c3cc(F)c(-c4cc5c(cc4Cl)NC(=O)C5)cc3n(Cc3cc(F)c(F)c(F)c3)c2=O)n1 [Compound I-0249] | 0.033 µM
22 | Cn1cnc(Cn2c(=O)c3c(Cl)cc(-c4cc5c(cc4Cl)NC(=O)C5)cc3n(Cc3cc(Cl)c(F)cn3)c2=O)n1 [Compound I-0117] | < 0.1 µM

Row | SMILES | IC50
23 | COc1cc(-c2cc(CN=S(C)(C)=O)ccc2Cl)cc2c1c(=O)n(Cc1ncn(C)n1)c(=O)n2Cc1cc(F)c(F)c(F)c1 [Compound I-0363] | 0.035 µM
24 | Cn1cnc(Cn2c(=O)c3c(F)c(Cl)c(-c4cc(C#N)ccc4Cl)cc3n(Cc3cc(F)c(F)c(Cl)c3)c2=O)n1 [Compound I-0506] | < 0.1 µM
25 | Cn1cnc(Cn2c(=O)c3c4c(c(-c5cc(C#N)ccc5Cl)cc3n(Cc3cc(F)c(F)c(F)c3)c2=O)CCO4)n1 [Compound I-0414] | 0.0015 µM
26 | Cn1cnc(Cn2c(=O)c3c(F)cc(-c4cc5cn[nH]c5cc4Cl)cc3n(Cc3cc(F)c(F)c(Cl)c3)c2=O)n1 [Compound I-0269] | < 0.1 µM
27 | COc1nc(N2CCC(C#N)C2)cc2c1c(=O)n(Cc1ncn(C)n1)c(=O)n2Cc1cc(F)c(F)c(F)c1 (centres unmarked) [Compound I-0451] | < 0.1 µM
28 | Cc1cncc(-n2c(=O)c3c(F)cc(-c4cc(C#N)ccc4Cl)cc3n(Cc3ccc(F)c(C#N)c3)c2=O)c1 [Compound I-0050] | < 0.1 µM
29 | COc1cc(-c2cc3c[nH]nc3cc2Cl)cc2c1c(=O)n(Cc1ncn(C)n1)c(=O)n2Cc1cc(F)c(F)c(F)c1 [Compound I-0115] | 0.0093 µM
30 | COc1nc(N2CC[C@@H](OC)C2)cc2c1c(=O)n(Cc1ncn(C)n1)c(=O)n2Cc1cc(F)c(F)c(F)c1 [Compound I-0449] | 0.037 µM
31 | COc1cc(-c2cc(C(=O)NCCOCCO)ccc2Cl)cc2c1c(=O)n(-c1cncc(C)c1)c(=O)n2Cc1ccc(F)c(C#N)c1 [Compound I-0196] | 0.011 µM
32 | Cn1cnc(Cn2c(=O)c3c(F)cc(-c4nc5c(cc4Cl)NC(=O)C54CC4)cc3n(Cc3cc(F)c(F)c(F)c3)c2=O)n1 [Compound I-0008] | 0.021 µM
33 | COc1cc(-c2cc(C(=O)N3CCOCC3)ccc2Cl)cc2c1c(=O)n(-c1cncc(C)c1)c(=O)n2Cc1ccc(F)c(C#N)c1 [Compound I-0209] | < 0.1 µM
34 | Cn1cnc(Cn2c(=O)c3c4c(c(-c5cc6c(cc5Cl)NC(=O)C6)cc3n(Cc3cc(F)c(F)c(F)c3)c2=O)CCO4)n1 [Compound I-0353] | 0.00045 µM
35 | Cn1cnc(Cn2c(=O)c3c(Cl)cc(-c4cc5c(cc4Cl)NC(=O)C5)cc3n(Cc3cc(F)c(F)c(Cl)c3)c2=O)n1 [Compound I-0171] | 0.0032 µM
36 | COc1nc(N2CC[C@@H](F)C2)cc2c1c(=O)n(Cc1ncn(C)n1)c(=O)n2Cc1cc(F)c(F)c(Cl)c1 [Compound I-0484] | < 0.1 µM
37 | O=C1Cc2cc(-c3cc(F)c4c(=O)n(-c5cncc(Cl)c5)c(=O)n(Cc5cc(Cl)c(F)cn5)c4c3)c(Cl)cc2N1 [Compound I-0077] | < 0.1 µM
38 | COc1cc(-c2nc3[nH]c(=O)[nH]c3cc2Cl)cc2c1c(=O)n(Cc1ncn(C)n1)c(=O)n2Cc1cc(F)c(F)c(F)c1 [Compound I-0001] | 0.0053 µM
39 | O=C1Cc2cc(-c3cc(F)c4c(=O)n(-c5cncc(Cl)c5)c(=O)n(Cc5cc(F)c(F)c(F)c5)c4c3)c(Cl)cc2N1 [Compound I-0071] | < 0.1 µM
40 | Cn1cnc(Cn2c(=O)c3c(=O)n(C)c(-c4cc(C#N)ccc4Cl)cc3n(Cc3cc(F)c(F)c(Cl)c3)c2=O)n1 [Compound I-0162] | 0.0008 µM
41 | COc1cc(-c2cc(C(=O)NCCCO)ccc2Cl)cc2c1c(=O)n(-c1cncc(C)c1)c(=O)n2Cc1ccc(F)c(C#N)c1 [Compound I-0193] | 0.009 µM

Row | SMILES | IC50
42 | COc1cc(-c2cc(C#N)ccc2Cl)cc2c1c(=O)n(Cc1ncn(C)n1)c(=O)n2Cc1cc(Cl)c(F)cc1F [Compound I-0279] | < 0.1 µM
43 | COc1cc(-c2cc(C(=O)NCCN3CCOCC3)ccc2Cl)cc2c1c(=O)n(Cc1ncn(C)n1)c(=O)n2Cc1cc(F)c(F)c(F)c1 [Compound I-0217] | < 0.1 µM
44 | COc1cc(-c2cc(C(=O)NCCN(C)C)ccc2Cl)cc2c1c(=O)n(Cc1ncn(C)n1)c(=O)n2Cc1cc(F)c(F)c(F)c1 [Compound I-0212] | < 0.1 µM
45 | COc1cc(-c2cc(CC(=O)NCCN(C)C)ccc2Cl)cc2c1c(=O)n(-c1cncc(Cl)c1)c(=O)n2Cc1cc(Cl)ccc1C [Compound I-0189] | 0.0071 µM
46 | COc1cc(-c2cc(C#N)ccc2Cl)cc2c1c(=O)n(Cc1ncn(C)n1)c(=O)n2Cc1cc(F)c(F)c(Cl)c1 [Compound I-0271] | < 0.1 µM
47 | COc1cc(-c2cc(NS(C)(=O)=O)ccc2Cl)cc2c1c(=O)n(-c1cncc(Cl)c1)c(=O)n2Cc1cc(F)c(F)c(F)c1 [Compound I-0079] | < 0.1 µM
48 | Cn1cnc(Cn2c(=O)c3c(F)cc(-c4cc5c(cc4Cl)NC(=O)C54CC4)cc3n(Cc3cc(F)c(F)c(F)c3)c2=O)n1 [Compound I-0119] | 0.023 µM
49 | Cn1cnc(Cn2c(=O)c3c(F)cc(-c4nc5c(cc4Cl)NC(=O)C5)cc3n(Cc3cc(F)c(F)c(F)c3)c2=O)n1 [Compound I-0009] | 0.021 µM
50 | COc1cc(-c2cc(S(N)(=O)=O)ccc2Cl)cc2c1c(=O)n(Cc1ncn(C)n1)c(=O)n2Cc1cc(F)c(F)c(F)c1 [Compound I-0118] | < 0.1 µM
51 | COc1cc(-c2cc(NS(C)(=O)=O)ccc2Cl)cc2c1c(=O)n(Cc1ncn(C)n1)c(=O)n2Cc1cc(F)c(F)c(F)c1 [Compound I-0136] | < 0.1 µM
52 | Cn1cnc(Cn2c(=O)c3c(F)cc(-c4cc(-c5nnc(N)o5)ccc4Cl)cc3n(Cc3cc(F)c(F)c(F)c3)c2=O)n1 [Compound I-0080] | 0.034 µM
53 | O=c1[nH]cccc1Cn1c(=O)c2ccc(N3C[C@@H]4C[C@H]3CN4)cc2n(Cc2cc(F)c(F)c(F)c2)c1=O [Compound I-0141] | < 0.1 µM
54 | COc1cc(-c2c(Cl)ccc3ncccc23)cc2c1c(=O)n(Cc1ncn(C)n1)c(=O)n2Cc1cc(F)c(F)c(F)c1 [Compound I-0124] | < 0.1 µM
55 | COc1cc(-c2cc(CC(=O)NCCN(C)C)ccc2Cl)cc2c1c(=O)n(-c1cncc(Cl)c1)c(=O)n2Cc1ccc(F)c(C#N)c1 [Compound I-0203] | < 0.1 µM
56 | COc1cc(-c2cc3c(cc2Cl)NC(=O)C3)cc2c1c(=O)n(-c1cncc(C)c1)c(=O)n2Cc1cc(F)c(F)c(C#N)c1 [Compound I-0161] | 0.00075 µM
57 | COc1nc(N2CC[C@@H](O)C2)cc2c1c(=O)n(Cc1ncn(C)n1)c(=O)n2Cc1cc(F)c(F)c(Cl)c1 [Compound I-0388] | 0.02 µM
58 | COc1nc(N2CC[C@@H](C(N)=O)C2)cc2c1c(=O)n(-c1cncc(Cl)c1)c(=O)n2Cc1cc(F)c(F)c(F)c1 [Compound I-0511] | < 0.1 µM
59 | CC1COc2c1c(-c1cc(C#N)ccc1Cl)cc1c2c(=O)n(Cc2ncn(C)n2)c(=O)n1Cc1cc(F)c(F)c(F)c1 (centres unmarked) [Compound I-0438] | 0.0035 µM

From patent US20240400560A1, “BICYCLIC HETEROCYCLIC DERIVATIVE HAVING VIRAL GROWTH INHIBITORY ACTIVITY AND PHARMACEUTICAL COMPOSITION CONTAINING SAME” (Shionogi & Co., Ltd., priority 2021, published 2024)
